# Target: T1, Aromatase (Homo sapiens, UniProt P11511)
# T1 sequence (P11511 whole entry): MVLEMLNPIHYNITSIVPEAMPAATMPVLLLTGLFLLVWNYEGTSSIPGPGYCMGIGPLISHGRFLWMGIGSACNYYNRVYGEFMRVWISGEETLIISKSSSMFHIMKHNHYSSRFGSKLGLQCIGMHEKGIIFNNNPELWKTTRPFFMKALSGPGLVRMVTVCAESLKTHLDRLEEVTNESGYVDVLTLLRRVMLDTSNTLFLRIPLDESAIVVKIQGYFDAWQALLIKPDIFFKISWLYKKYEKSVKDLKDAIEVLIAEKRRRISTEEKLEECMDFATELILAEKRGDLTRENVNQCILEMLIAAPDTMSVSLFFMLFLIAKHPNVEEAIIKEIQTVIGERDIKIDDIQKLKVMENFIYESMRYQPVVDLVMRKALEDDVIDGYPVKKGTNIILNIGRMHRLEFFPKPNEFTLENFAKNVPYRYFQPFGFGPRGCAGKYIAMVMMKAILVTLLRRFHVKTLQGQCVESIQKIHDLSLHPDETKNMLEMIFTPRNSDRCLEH
# Test: Inhibition of aromatase in human placental microsomes assessed as inhibition of aromatization of [1,2,6,7-3H] androstenedione by flow scintillation analysis
# Design: species or system Placenta
row,SMILES,IC50
1,N#Cc1ccc(C2CC(n3ccnc3)c3ccc4ccccc4c3O2)cc1 (stereo in doubt),34 nM
2,c1ccc(C2CC(n3ccnc3)c3ccc4ccccc4c3O2)cc1 (trans isomer),36 nM
3,Oc1ccc(C2CC(n3ccnc3)c3ccc4ccccc4c3O2)cc1 (mixture of isomers),32 nM

# Further lines, results first:
row,IC50,SMILES
1,534 nM,N#Cc1ccc(C2CC(n3ccnc3)c3ccc4ccccc4c3O2)cc1 (cis isomer)
2,78 nM,N#Cc1ccc(C2CC(n3ccnc3)c3ccc4ccccc4c3O2)cc1 (mixture of isomers)
